# Experimental data from patent US20140056960A1, “Methods for Improving Fracture Healing and Bone Formation” (Imperial Innovations Limited, priority 2010, published 2014).
# Entries after “also recorded” stand apart in the source; their conditions may differ. Read-outs that look alike come from different tables or passages of the source.
# Experiments:
# osteoporotic fracture = osteoporotic fracture repair in ovariectomised mice, callus mineralization by microCT; assay type: in vivo, mouse; settings: for percentage callus mineralization / fracture healing: day 14, 20 μL rhTNF-α 50 ng/ml immediately post fracture and 1 day later, vs PBS
# Description: FIG. 6. Addition of exogenous TNF-α accelerates osteoporotic fracture repair in vivo. 20 μL of rhTNF-α at 50 ng/ml was injected at the fracture site immediately post fracture and 1 day later. Osteoporosis was induced by ovariectomising mice 4 weeks prior to surgery. (A). At day 14, mice were harvested and limbs scanned by microCT in a blinded fashion. […] At day 28 post fracture the percentage mineralised callus volume in the three groups (normal, those that had undergone oophorectomy and oophrectomised animals treated with TNF-α) were similar. […] (B).
# We have investigated the effect of adding recombinant human TNF-α at the fracture site in mice rendered osteoporotic by oophorectomy 4 weeks previously.
# [1] = tested on: intramuscular bone-inducing implant; settings: daily intra-peritoneal administration; cited from earlier work
# tibial fracture [2] = test: murine tibial fracture model: callus mineralization (microCT) and histology after local administration at fracture site; assay type: in vivo, mouse; settings: for fracture healing / callus mineralization: local, approx. 1 ng or 50 ng/kg (50 ng/ml, 20 microlitres PBS) at time of fracture and 24 hr later, day 28; for fracture healing / percentage callus mineralization: exogenous alarmin at fracture site days 0 and 1 (rmHMGB1 20 μL at 50 ng/ml), day 28 microCT
# Description: Percentage callus mineralization was determined from the fracture site to 1 mm proximally (mean+/−SEM). FIG. 5. Dose response of exogenous TNF-α in vivo. 20 μL of PBS with rhTNF-α at the corresponding dose was injected at the fracture site at days 0 and 1 in C57BI/6 mice. At day 28, mice were harvested and limbs scanned by microCT in a blinded fashion. Percentage callus mineralization was determined from the fracture site to 1 mm proximally (threshold density of 350 mg/cm^3). * p<0.05, ** p<0.01. FIG. 7A. […] Percentage callus mineralization was determined from the fracture site to 1 mm proximally (mean+/−SEM). FIG. 18. […] C57BI6 mice were subjected to fracture model with addition of 20 μL of rmHMGB1 at 50 ng/ml at the fracture site at days 0 and 1 compared to controls. Addition of exogenous S100A8 or S100A9 or S100A8/9 had no effect, possibly because the fracture environment may already contain optimal amounts of S100 A8 or A9 proteins. All mice were harvested at day 28 and limbs scanned by microCT in a blinded fashion. Percentage callus mineralization was determined from the fracture site to 1 mm proximally (mean+/−SEM). […] Inflammation plays a vital role in early fracture repair^11,12. In murine models, TNF-α, IL-1 and IL-6 are expressed at the fracture site within 24 hours of injury^13,14. Biphasic expression of TNF-α and IL-1β appears to be linked to the initiation of fracture repair and later to endochondral maturation^14,15. In our murine model, callus mineralization at day 28 was enhanced when TNF-α, at a concentration of 50 ng/kg was injected locally following injury (day 0) and 24 hours later.
# rib fracture = settings: cited from earlier work
# tibial fracture [3] = test: murine tibial fracture model: callus mineralization (microCT) and histology after local administration at fracture site; assay type: in vivo, mouse
# [4] = human, in vivo, cited from earlier work
# [5] = tested on: human muscle-derived stromal cells; settings: cited from earlier work
# PBMCs = test: TNF-α production by PBMCs (ELISA, 14 hours); assay type: cell-based, human; settings: for TNF-α production by PBMCs: PBMCs 1*10^5/ml, 10% FCS, alarmin at indicated doses
# Description: FIG. 10. […] (A) PBMCs at 1*10^5/ml were incubated in 10% fetal calf serum (FCS) with S100 A8 at indicated doses. […] (B) PBMCs at 1*10^5/ml were incubated in 10% FCS with S100 A8 at 0.5 μg/ml with the addition of either antibody to TLR4, TLR2 or isotype controls (not shown), or sRAGE over 14 hours. TNF-α levels were determined by ELISA.
# FIG. 12. […] PBMCs at 1*10^5/ml were incubated in 10% FCS with S100 A8, S100 A9 or S100 A12 at the indicated doses over 14 hours. TNF-α levels were determined by ELISA.
# FIG. 17. […] PBMCs at 1*10^5/ml were incubated in 10% FCS with HMGB1 or LPS at the indicated doses over 14 hours; TNF-α levels were determined by ELISA.
# bone marrow cells = test: TNF-α production by bone marrow cells from wild type, TLR-4 and MyD88 knockout mice; assay type: cell-based, mouse; settings: WT, TLR-4 and MyD88 knockout bone marrow cells
# Description: FIG. 11. TNF-α production by bone marrow cells from wild type (WT), TLR-4 and MyD88 knockout mice treated with murine S100A8.
molecule,measurement,setting,value
TNF-α,percentage callus mineralization / fracture healing,osteoporotic fracture,significantly greater
same,percentage callus mineralization / fracture healing,osteoporotic fracture; listed as recombinant human TNF-α,significantly accelerated fracture healing
same,percentage mineralised callus volume,"osteoporotic fracture; day 28 post fracture, normal vs oophorectomy vs oophorectomy + TNF-α",similar
same,3D reconstructions of fracture site,osteoporotic fracture; rhTNF-α group vs PBS control,bridging of the fracture site with callus and ossification of the cartilaginous intermediary as well as remodelling of the ossified callus
same,bone formation around implant,[1],inhibited bone formation
same,callus mineralization at day 28,"tibial fracture [2]; ""high"" dose of 5-100 μg/kg",significantly less callus mineralization
same,callus mineralization at day 28,"tibial fracture [2]; ""low"" dose of 50 pg/kg",indistinguishable from the PBS only control
same,fracture healing compared to PBS control,tibial fracture [2]; doses of 10 pg to 1 ng at fracture site (FIG. 5),significantly accelerated healing
same,fracture healing / callus mineralization,tibial fracture [2],effective in promoting bone formation and accelerating fracture healing; also recorded: enhanced; also recorded: significantly accelerated healing of the fracture
same,fracture healing / callus mineralization,tibial fracture [2]; listed as rhTNF-α,accelerate callus mineralization
same,fracture healing,rib fracture; 40 μg/kg/day,(non significant) improvement in fracture healing
same,fracture healing,rib fracture; daily intra-peritoneal 400 μg/kg,impaired healing
same,histology of tibial fracture,"tibial fracture [3]; 14 days post injury, local TNF-α 50 ng/kg body weight (1 ng/ml) in PBS",complete bridging of the fracture site by hard callus (bone) and remodelling of the fracture callus
same,"adverse effect, highest doses administered repeatedly",[4]; sc,minor local reactions
same,"adverse effect, highest doses administered repeatedly",[4],clinically insignificant thrombocytopaenia
same,single doses found safe,[4],up to 400 micrograms
same,effect at 10 fold increase beyond optimal range,[5]; 10 ng/ml,significant diminution in effect
same,migration and osteogenic differentiation of MDSC,[5],can migrate and differentiate upon stimulation; also recorded: clear concentration dependency; also recorded: accelerates bone formation within a narrow therapeutic window and is inhibitory at high concentrations
same,optimal in vitro dose,[5],0.1 to 1 ng/mL
IL-1β: pro-inflammatory cytokine with some osteogenic activity in vitro,bone nodule formation in vitro,"[5]; cytokine alone, human specimens",does not promote bone nodule formation
same,alkaline phosphatase production,[5]; human muscle-derived stromal cells,increased alkaline phosphatase production
"recombinant murine IL-10: an anti-inflammatory cytokine (protein, UniProt P18893 19-178, looked up) Interleukin-10: SRGQYSREDNNCTHFPVGQSHMLLELRTAFSQVKTFFQTKDQLDNILLTDSLMQDFKGYLGCQALSEMIQFYLVEVMPQAEKHGPEIKEHLNSLGEKLKTLRMRLRRCHRFLPCENKSKAVEQVKSDFNKLQDQGVYKAMNEFDIFINCIEAYMMIKMKS",fracture healing as percentage mineralized callus volume,"tibial fracture [3]; 14 days post fracture, administered at fracture site",inhibition of fracture healing
"S100A9: alarmin (protein, UniProt P06702 1-114, looked up) Protein S100-A9: MTCKMSQLERNIETIINTFHQYSVKLGHPDTLNQGEFKELVRKDLQNFLKKENKNEKVIEHIMEDLDTNADKQLSFEEFIMLMARLTWASHEKMHEGDEGPGHHHKPGLGEGTP",fracture healing / percentage callus mineralization,tibial fracture [2],no effect
same,TNF-α production by PBMCs,PBMCs,much lower effect than S100A8
same,TNF-α production by PBMCs,PBMCs; listed as S100 A9,much less potent than S100 A8
"S100A8/9: alarmin (protein, UniProt P05109 1-93; P06702 1-114, looked up) Protein S100-A8: MLTELEKALNSIIDVYHKYSLIKGNFHAVYRDDLKKLLETECPQYIRKKGADVWFKELDINTDGAVNFQEFLILVIKMGVAAHKKSHEESHKE Protein S100-A9: MTCKMSQLERNIETIINTFHQYSVKLGHPDTLNQGEFKELVRKDLQNFLKKENKNEKVIEHIMEDLDTNADKQLSFEEFIMLMARLTWASHEKMHEGDEGPGHHHKPGLGEGTP",fracture healing / percentage callus mineralization,tibial fracture [2],no effect
same,TNF-α production by PBMCs,PBMCs,no activity
"murine S100A8: murine alarmin S100A8 used on mouse bone marrow cells (protein, UniProt P27005 2-89, looked up) Protein S100-A8: PSELEKALSNLIDVYHNYSNIQGNHHALYKNDFKKMVTTECPQFVQNINIENLFRELDINSDNAINFEEFLAMVIKVGVASHKDSHKE",receptor dependence of TNF-α production,bone marrow cells,largely dependent on TLR-4 receptor and absolutely dependent on MyD88
"HMGB1: alarmin; highly purified HMGB-1 (protein, UniProt P09429 1-215, looked up) High mobility group protein B1: MGKGDPKKPRGKMSSYAFFVQTCREEHKKKHPDASVNFSEFSKKCSERWKTMSAKEKGKFEDMAKADKARYEREMKTYIPPKGETKKKFKDPNAPKRPPSAFFLFCSEYRPKIKGEHPGLSIGDVAKKLGEMWNNTAADDKQPYEKKAAKLKEKYEKDIAAYRAKGKPDAAKKGVVKAEKSKKKKEEEEDEEDEEDEEEEEDEEDEDEEEDDDDE",fracture healing,"tibial fracture [2]; 1 mg/ml at fracture site at days 0 and 1, 28 days post fracture",significantly (p=0.02) accelerated healing
same,fracture healing / percentage callus mineralization,tibial fracture [2],accelerated healing; also recorded: accelerates fracture healing
same,"TNF-α production by PBMCs, HMGB1 with addition of LPS",PBMCs; HMGB1 and LPS at indicated doses,synergistic effect
same,TNF-α production by PBMCs,PBMCs,not pro-inflammatory in isolation in vitro
same,TNF-α production by PBMCs,PBMCs; listed as HMGB-1,did not lead to TNF-α production
"rmHMGB1: exogenous alarmin rmHMGB1 added locally at the fracture site (protein, UniProt P63158 1-215, looked up) High mobility group protein B1: MGKGDPKKPRGKMSSYAFFVQTCREEHKKKHPDASVNFSEFSKKCSERWKTMSAKEKGKFEDMAKADKARYEREMKTYIPPKGETKKKFKDPNAPKRPPSAFFLFCSEYRPKIKGEHPGLSIGDVAKKLGEMWNNTAADDKQPYEKKAAKLKEKYEKDIAAYRAKGKPDAAKKGVVKAEKSKKKKEEEDDEEDEEDEEEEEEEEDEDEEEDDDDE",fracture healing / percentage callus mineralization,tibial fracture [2],accelerates fracture; also recorded: improves callus mineralisation
